The numbers were not newly measured in patent EP0920301B1, “THERAPEUTIC OR HYGIENIC COMPOSITIONS WITH CONTROLLED AND PROLONGED RELEASE OF THE ACTIVE PRINCIPLE(S), IN PARTICULAR FOR OPHTHALMIC USE” (priority 1997, dated 1998), which cites them from elsewhere.

For this data set, the system named is la plupart des agents infectieux. Conditions: stated threshold, source not given.

As for sulfate de gentamicine, the concentration inhibitrice minimale was 4 µg/mL.
